This note sets out measurements from patent US20260297092A1, “PYRAZOLOPYRIMIDINE DERIVATIVES AS INHIBITORS OF NLRP3” (Takeda Pharmaceutical Company Limited, priority 2023, published 2026).

The test system of assay [1] is NLRP3 inflammasome (IL-1β production in THP-1 cells). In words: IL-1β TR-FRET Assay (percentage of inhibition at 300 nM, 6 μM or 10 μM). The assay is classed as cell-based, human. The following applies: Homo sapiens, LPS priming, ATP activation; for inhibition at 0.3 µM: THP-1, 300 nM, read-out: IL-1β inhibitory rate at 300 nM (%); for inhibition at 6 µM: THP-1, 6 μM, read-out: IL-1β inhibitory rate at 6 μM (%). In outline:
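Percent inhibition of IL-1β used DMSO wells as 0% and 3 μM MCC-950 wells as full inhibition, with supernatant read by HTRF. Beforehand, IFN-γ-differentiated (25 ng/mL, 24 h), LPS-primed (50 ng/mL, 24 h) THP-1 cells received compound 30 min before inflammasome activation by 20 mM ATP for 2 h.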

The subject of assay [2] is TNF-α (NF-κB pathway, THP-1 cells). The assay can be described thus: TNF-α Assay (IC50). The note with it: Homo sapiens, 600 ng/mL LPS, 3 hours. The assay is classed as cell-based, human. In outline: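 Supernatant TNF-α quantified by ELISA after 3 h stimulation with 600 ng/mL LPS at 37 °C, following 30 min compound preincubation. Cells: IFN-differentiated (25 ng/mL, 24 h) THP-1 macrophages, 40,000/well, serum-free. IC50 by sigmoidal fit of % inhibition, with TPCA-1 as 100% control.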

Each structure is given as a SMILES string.

Regarding `Cc1cc(C)c(-n2cc3c(=O)[nH]c(CC(C)(C)C)nc3n2)c(O)c1` [Example 68, 6-(2,2-dimethylpropyl)-2-(2-hydroxy-4,6-dimethylphenyl)-2,5-dihydro-4H-pyrazolo[3,4-d]pyrimidin-4-one], in assay [1], the inhibition at 0.3 µM is 97%. The compound further yielded an IC50 in assay [2] of 0.279 µM.
Take `Cn1ccc(-c2nc3nn(-c4c(F)cc(C5CC5)cc4C(F)F)cc3c(=O)[nH]2)n1` [Example 299, 2-[4-cyclopropyl-2-(difluoromethyl)-6-fluorophenyl]-6-(1-methyl-1H-pyrazol-3-yl)-2,5-dihydro-4H-pyrazolo[3,4-d]pyrimidin-4-one]: the inhibition at 6 µM in assay [1] stood at 99%. This compound also yielded an IC50 in assay [2] greater than 30 µM.
In the case of `COc1nc2nn(-c3c(C)cc(Br)cc3C(F)F)cc2c(=O)[nH]1` [Example 214, 2-[4-bromo-2-(difluoromethyl)-6-methylphenyl]-6-methoxy-2,5-dihydro-4H-pyrazolo[3,4-d]pyrimidin-4-one], in assay [1], the inhibition at 0.3 µM amounted to 107%. The concentration for half-maximal inhibition (IC50) in assay [2] was greater than 30 µM.
In the case of `Cc1cc(-c2nc3nn(-c4c(C)cc(C5CC5)cc4C)cc3c(=O)[nH]2)no1` [Example 274, 2-(4-cyclopropyl-2,6-dimethylphenyl)-6-(5-methyl-1,2-oxazol-3-yl)-2,5-dihydro-4H-pyrazolo[3,4-d]pyrimidin-4-one], the inhibition at 6 µM in assay [1] came out at 102%. Also, the IC50 in assay [2] was greater than 30 µM.
`CCOc1nc2nn(-c3c(C)cc(C)cc3C#N)cc2c(=O)[nH]1` [Example 152, 2-(6-ethoxy-4-oxo-4,5-dihydro-2H-pyrazolo[3,4-d]pyrimidin-2-yl)-3,5-dimethylbenzonitrile]: in assay [1], the inhibition at 0.3 µM stood at 92%. In addition, in assay [2], the IC50 is greater than 30 µM.
In the case of `CCc1nc2nn(-c3c(C)cc(C4CC4)cc3C)cc2c(=O)[nH]1` [Example 241, 2-(4-cyclopropyl-2,6-dimethylphenyl)-6-ethyl-2,5-dihydro-4H-pyrazolo[3,4-d]pyrimidin-4-one], the inhibition at 6 µM in assay [1] amounted to 101%. This compound also showed an IC50 in assay [2] greater than 30 µM.
For `CCOc1nc2nn(-c3ncc(Br)cc3C(F)(F)F)cc2c(=O)[nH]1` [Example 148, 2-[5-bromo-3-(trifluoromethyl)pyridin-2-yl]-6-ethoxy-2,5-dihydro-4H-pyrazolo[3,4-d]pyrimidin-4-one], the inhibition at 0.3 µM in assay [1] came out at 96%. The IC50 in assay [2] is greater than 30 µM.
The like results for `Cc1cc(C)c(-n2cc3c(=O)[nH]c(-c4ncccn4)nc3n2)c(O)c1` [Example 34, 2-(2-hydroxy-4,6-dimethylphenyl)-6-(pyrimidin-2-yl)-2,5-dihydro-4H-pyrazolo[3,4-d]pyrimidin-4-one] were, in that order, 98% and greater than 30 µM.
The like results for `CCOc1nc2nn(-c3c(Br)cc(C4CC4)cc3COC)cc2c(=O)[nH]1` [Example 155, 2-[2-bromo-4-cyclopropyl-6-(methoxymethyl)phenyl]-6-ethoxy-2,5-dihydro-4H-pyrazolo[3,4-d]pyrimidin-4-one] were, in that order, 99% and greater than 30 µM.
The like results for `Cc1cc(C)c(-n2cc3c(=O)[nH]c(C4(C)CC4)nc3n2)c(O)c1` [Example 25, 2-(2-hydroxy-4,6-dimethylphenyl)-6-(1-methylcyclopropyl)-2,5-dihydro-4H-pyrazolo[3,4-d]pyrimidin-4-one] were, in that order, 100% and greater than 30 µM.
As for `CCOc1nc2nn(-c3c(C)cc(C(F)(F)F)cc3F)cc2c(=O)[nH]1` [Example 64, 6-ethoxy-2-[2-fluoro-6-methyl-4-(trifluoromethyl)phenyl]-2,5-dihydro-4H-pyrazolo[3,4-d]pyrimidin-4-one], the inhibition at 0.3 µM in assay [1] came out at 100%. This compound also gave an IC50 in assay [2] greater than 30 µM.
Regarding `Cc1cc(C2CC2)cc(C(F)F)c1-n1cc2c(=O)[nH]c(C3(F)CC3)nc2n1` [Example 319, 2-[4-cyclopropyl-2-(difluoromethyl)-6-methylphenyl]-6-(1-fluorocyclopropyl)-2,5-dihydro-4H-pyrazolo[3,4-d]pyrimidin-4-one], the inhibition at 6 µM in assay [1] amounted to 100%. This compound also yielded an IC50 in assay [2] greater than 30 µM.
In the case of `CCOc1nc2nn(-c3c(C)cc(C4CC4)cc3C)cc2c(=O)[nH]1` [Example 132, 2-(4-cyclopropyl-2,6-dimethylphenyl)-6-ethoxy-2,5-dihydro-4H-pyrazolo[3,4-d]pyrimidin-4-one], the inhibition at 0.3 µM in assay [1] was found to be 99%. Besides, in assay [2], the IC50 was greater than 30 µM.
On the same counts, the results for `COc1nc2nn(-c3c(F)cc(C4(F)CC4)cc3Br)cc2c(=O)[nH]1` [Example 204, 2-[2-bromo-6-fluoro-4-(1-fluorocyclopropyl)phenyl]-6-methoxy-2,5-dihydro-4H-pyrazolo[3,4-d]pyrimidin-4-one] are 98% and greater than 30 µM.
In the case of `CCOc1nc2nn(-c3c(C)cc(F)cc3F)cc2c(=O)[nH]1` [Example 126, 2-(2,4-difluoro-6-methylphenyl)-6-ethoxy-2,5-dihydro-4H-pyrazolo[3,4-d]pyrimidin-4-one], the inhibition at 0.3 µM in assay [1] came to 51%. Further, the concentration for half-maximal inhibition (IC50) in assay [2] is greater than 30 µM.
The like results for `Cc1cc(C)c(-n2cc3c(=O)[nH]c(CC4CCCCO4)nc3n2)c(O)c1` (centres unmarked) [Example 67, 2-(2-hydroxy-4,6-dimethylphenyl)-6-[(oxan-2-yl)methyl]-2,5-dihydro-4H-pyrazolo[3,4-d]pyrimidin-4-one] were, in that order, 98% and greater than 30 µM.
In the case of `Cc1ccc(-n2cc3c(=O)[nH]c(-c4ccncn4)nc3n2)c(C)c1` [Example 84, 2-(2,4-dimethylphenyl)-6-(pyrimidin-4-yl)-2,5-dihydro-4H-pyrazolo[3,4-d]pyrimidin-4-one], the inhibition at 0.3 µM in assay [1] was 97%. This compound also yielded an IC50 in assay [2] greater than 30 µM.
On the same counts, the results for `Cc1cc(C)c(-n2cc3c(=O)[nH]c(-c4cccn(C)c4=O)nc3n2)c(O)c1` [Example 66, 2-(2-hydroxy-4,6-dimethylphenyl)-6-(1-methyl-2-oxo-1,2-dihydropyridin-3-yl)-2,5-dihydro-4H-pyrazolo[3,4-d]pyrimidin-4-one] are 97% and greater than 30 µM.
For `CCOc1nc2nn(-c3ncc(C4CC4)cc3C(F)(F)F)cc2c(=O)[nH]1` [Example 153, 2-[5-cyclopropyl-3-(trifluoromethyl)pyridin-2-y]-6-ethoxy-2,5-dihydro-4H-pyrazolo[3,4-d]pyrimidin-4-one], in assay [1], the inhibition at 0.3 µM was determined as 101%. The compound further showed an IC50 in assay [2] greater than 30 µM.
The like results for `Cc1cc(C)c(-n2cc3c(=O)[nH]c(OCCN(C)C)nc3n2)c(O)c1` [Example 50, 6-[2-(dimethylamino)ethoxy]-2-(2-hydroxy-4,6-dimethylphenyl)-2,5-dihydro-4H-pyrazolo[3,4-d]pyrimidin-4-one] were, in that order, 101% and greater than 30 µM.
The like results for `Cc1ccc(-n2cc3c(=O)[nH]c(OC4CCOCC4)nc3n2)c(C)c1` [Example 176, 2-(2,4-dimethylphenyl)-6-[(oxan-4-yl)oxy]-2,5-dihydro-4H-pyrazolo[3,4-d]pyrimidin-4-one] were, in that order, 101% and greater than 30 µM.
The like results for `Cc1cc(C2CC2)cc(C)c1-n1cc2c(=O)[nH]c(-c3cc4n(n3)CCOC4)nc2n1` [Example 218, 2-(4-cyclopropyl-2,6-dimethylphenyl)-6-(6,7-dihydro-4H-pyrazolo[5,1-c][1,4]oxazin-2-yl)-2,5-dihydro-4H-pyrazolo[3,4-d]pyrimidin-4-one] were, in that order, 106% and greater than 30 µM.
For `Cc1cc(C)c(-n2cc3c(=O)[nH]c(C4CCCCO4)nc3n2)c(O)c1` (centres unmarked) [Example 18, 2-(2-hydroxy-4,6-dimethylphenyl)-6-(oxan-2-yl)-2,5-dihydro-4H-pyrazolo[3,4-d]pyrimidin-4-one], in assay [1], the inhibition at 0.3 µM turned out to be 99%. In assay [2], the IC50 was greater than 30 µM.
Turning to `CCOc1nc2nn(-c3c(C)cc(Br)cc3F)cc2c(=O)[nH]1` [Example 24, 2-(4-bromo-2-fluoro-6-methylphenyl)-6-ethoxy-2,5-dihydro-4H-pyrazolo[3,4-d]pyrimidin-4-one], the inhibition at 0.3 µM in assay [1] came out at 99%. The IC50 in assay [2] is greater than 30 µM.
The like results for `COCc1nc2nn(-c3c(C)cc(C)cc3O)cc2c(=O)n1C` [Example 8, 2-(2-hydroxy-4,6-dimethylphenyl)-6-(methoxymethyl)-5-methyl-2,5-dihydro-4H-pyrazolo [3,4-d]pyrimidin-4-one] were, in that order, 92% and greater than 30 µM.
For the compound `Cc1cc(C2CC2)cc(C)c1-n1cc2c(=O)[nH]c(OCCOC(F)F)nc2n1` [Example 288, 2-(4-cyclopropyl-2,6-dimethylphenyl)-6-[2-(difluoromethoxy)ethoxy]-2,5-dihydro-4H-pyrazolo[3,4-d]pyrimidin-4-one], the inhibition at 6 µM in assay [1] was 99%. For the same compound, the IC50 in assay [2] was greater than 30 µM.
In the case of `CCOc1nc2nn(-c3c(C)cc(OC(F)F)cc3C(F)F)cc2c(=O)[nH]1` [Example 195, 2-[4-(difluoromethoxy)-2-(difluoromethyl)-6-methylphenyl]-6-ethoxy-2,5-dihydro-4H-pyrazolo[3,4-d]pyrimidin-4-one], the inhibition at 0.3 µM in assay [1] amounted to 101%. Moreover, in assay [2], the IC50 was greater than 30 µM.
As to `CCOc1nc2nn(-c3ccc(C)cc3O)c(Cl)c2c(=O)[nH]1` [Example 31, 3-chloro-6-ethoxy-2-(2-hydroxy-4-methylphenyl)-2,5-dihydro-4H-pyrazolo[3,4-d]pyrimidin-4-one], in assay [1], the inhibition at 0.3 µM is 99%. The same compound yielded an IC50 in assay [2] greater than 30 µM.
